Results as given in patent US12617773B2, “Azetidin-3-ylmethanol derivatives as CCR6 receptor modulators” (Idorsia Pharmaceuticals Ltd, priority 2020, dated 2026).

Target: T1, human CCR6 (Homo sapiens, UniProt P51684)
T1 construct: expressed in transfected cells; host or cells: HEK-293
T1 sequence (P51684 1-374): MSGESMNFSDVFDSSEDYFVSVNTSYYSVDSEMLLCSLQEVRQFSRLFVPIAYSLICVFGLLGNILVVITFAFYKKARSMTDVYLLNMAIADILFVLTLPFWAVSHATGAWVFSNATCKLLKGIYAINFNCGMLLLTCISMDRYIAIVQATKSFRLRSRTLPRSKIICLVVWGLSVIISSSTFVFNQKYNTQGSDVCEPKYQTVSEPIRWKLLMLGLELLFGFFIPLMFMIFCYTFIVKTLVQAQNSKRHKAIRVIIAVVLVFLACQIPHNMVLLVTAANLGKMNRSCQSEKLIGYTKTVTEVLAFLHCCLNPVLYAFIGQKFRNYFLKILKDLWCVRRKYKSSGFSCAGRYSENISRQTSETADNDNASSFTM
Assay: FLIPR assay (inhibition of CCL20-induced calcium signal)
Assay type: cell-based
Conditions: HEK-293 cells expressing human CCR6; mean values where determined several times; read-out: FLIPR IC50
Method in brief: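 IC50 values come from baseline-corrected peak calcium fluorescence after agonist. The agonist was CCL20 at 10 nM final, added to engineered human CCR6 HEK-293 cells following a 30-min, room-temperature, dark preincubation with serially diluted compound. Readings were taken in a fluorometric imaging plate reader.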

SMILES | IC50 [nM]
CC(C)c1ccc([C@](O)(c2cncc(C#CC3(N4CCOC4=O)CC3)c2)C2(C)CN(C)C2)cc1 [Example 595] | 93.2
CC(=O)N1CCC[C@]1(C)C#Cc1cncc([C@@](O)(c2ccc(C(C)C)cc2)C2(C)CN(C)C2)c1 [Example 596] | 117
CC(=O)N1CCC(O)(C#Cc2cncc([C@@](O)(c3ccc(C(C)C)cc3)C3(C)CN(C)C3)c2)CC1 [Example 597] | 395
CC(=O)N1CCC(C(C)(O)C#Cc2cncc([C@@](O)(c3ccc(C(C)C)cc3)C3(C)CN(C)C3)c2)CC1 (stereo partly drawn) [Example 598] | 94.8
CC(=O)N1CCC(C(O)C#Cc2cncc([C@@](O)(c3ccc(C(C)C)cc3)C3(C)CN(C)C3)c2)CC1 (stereo partly drawn) [Example 599] | 149
CC(=O)N1CCC(CC#Cc2cncc([C@@](O)(c3ccc(C(C)C)cc3)C3(C)CN(C)C3)c2)CC1 [Example 600] | 45.7
CC(=O)N1CCC(C)(C(O)C#Cc2cncc([C@@](O)(c3ccc(C(C)C)cc3)C3(C)CN(C)C3)c2)CC1 (stereo partly drawn) [Example 601] | 75.5
CC(=O)N1CCC(C)(C#Cc2cncc([C@@](O)(c3ccc(C(C)C)cc3)C3(C)CN(C)C3)c2)CC1 [Example 602] | 39.5
CC(C)c1ccc([C@](O)(c2cncc(C#CC3CCN(S(C)(=O)=O)CC3)c2)C2(C)CN(C)C2)cc1 [Example 603] | 31.2
CNS(=O)(=O)N1CCC(C)(C#Cc2cncc([C@@](O)(c3ccc(C(C)C)cc3)C3(C)CN(C)C3)c2)CC1 [Example 604] | 18.9
CC(C)c1ccc([C@](O)(c2cncc(C#CC(C)(C)S(C)(=O)=O)c2)C2(C)CN(C)C2)cc1 [Example 605] | 78.6
CC(C)c1ccc([C@](O)(c2cncc(C#CC3(S(=O)(=O)N(C)C)CC3)c2)C2(C)CN(C)C2)cc1 [Example 606] | 22.6
CC(C)c1ccc([C@](O)(c2cncc(C#CC3(S(N)(=O)=O)CC3)c2)C2(C)CN(C)C2)cc1 [Example 607] | 104
CC(C)c1ccc([C@](O)(c2cncc(C#CC(C)(C)S(=O)(=O)C3CC3)c2)C2(C)CN(C)C2)cc1 [Example 608] | 43.5
CC(C)c1ccc([C@](O)(c2cncc(C#C[C@]3(O)CCN(C)C3=O)c2)C2(C)CN(C)C2)cc1 [Example 609] | 656
CC(C)c1ccc([C@](O)(c2cncc(C#C[C@@]3(O)CCN(C)C3=O)c2)C2(C)CN(C)C2)cc1 [Example 610] | 426
CC(C)c1ccc([C@](O)(c2cncc(C#CC3(O)CCOc4cccnc43)c2)C2(C)CN(C)C2)cc1 (stereo partly drawn) [Example 611] | 74.9
CC(C)c1ccc([C@](O)(c2cncc(C#CC3(O)C(=O)N(C)c4ccccc43)c2)C2(C)CN(C)C2)cc1 (stereo partly drawn) [Example 612] | 58.5
CC(C)c1ccc([C@](O)(c2cncc(C#CC(C)(O)c3n[nH]c4ccccc34)c2)C2(C)CN(C)C2)cc1 (stereo partly drawn) [Example 613] | 11.1
CC(C)c1ccc([C@](O)(c2cncc(C#CC(C)(O)c3nn(C)c4ccccc34)c2)C2(C)CN(C)C2)cc1 (stereo partly drawn) [Example 614] | 12.6

SMILES | IC50 [nM]
Cc1nccc(C(C)(O)C#Cc2cncc([C@@](O)(c3ccc(C(C)C)cc3)C3(C)CN(C)C3)c2)n1 (stereo partly drawn) [Example 616] | 102
Cc1cnc(C(C)(O)C#Cc2cncc([C@@](O)(c3ccc(C(C)C)cc3)C3(C)CN(C)C3)c2)cn1 (stereo partly drawn) [Example 617] | 53.5
Cc1ncc(C(C)(O)C#Cc2cncc([C@@](O)(c3ccc(C(C)C)cc3)C3(C)CN(C)C3)c2)s1 (stereo partly drawn) [Example 618] | 23.3
CC(C)c1ccc([C@](O)(c2cncc(C#CC(C)(O)c3cc(C4CC4)ncn3)c2)C2(C)CN(C)C2)cc1 (stereo partly drawn) [Example 619] | 68.8
CC(=O)NC(C)(C)C#Cc1cncc([C@@](O)(c2ccc(C(C)C)cc2)C2(C)CN(C)C2)c1 [Example 621] | 235
CC(C)c1ccc([C@](O)(c2cncc(C#CC(C)(O)c3cc(C(F)(F)F)ncn3)c2)C2(C)CN(C)C2)cc1 (stereo partly drawn) [Example 632] | 14.1
CC(C)c1ccc([C@](O)(c2cncc(C#CC(C)(O)c3cc(C(F)F)ncn3)c2)C2(C)CN(C)C2)cc1 (stereo partly drawn) [Example 633] | 42.5
CC(C)c1ccc([C@](O)(c2cncc(C#CC3(c4ccccn4)CC3)c2)C2(C)CN(C)C2)cc1 [Example 634] | 40.6
Cc1cc(C2(C#Cc3cncc([C@@](O)(c4ccc(C(C)C)cc4)C4(C)CN(C)C4)c3)CC2)ncn1 [Example 635] | 23.2
CC(=O)N1CCC(CCc2cncc([C@@](O)(c3ccc(C(C)C)cc3)C3(C)CN(C)C3)c2)CC1 [Example 636] | 107
CC(C)c1ccc([C@](O)(c2cncc(CCC(C)(O)C(F)(F)F)c2)C2(C)CN(C)C2)cc1 (stereo partly drawn) [Example 637] | 46.3
CC(C)c1ccc([C@](O)(c2cncc(CCC(C)(C)N3CCOC3=O)c2)C2(C)CN(C)C2)cc1 [Example 638] | 509
CC(C)c1ccc([C@](O)(c2cncc(CCC(C)(C)N3CCCC3=O)c2)C2(C)CN(C)C2)cc1 [Example 639] | 96.6
CC(C)c1ccc([C@](O)(c2cncc(CCC(C)(C)N3CCN(C)C3=O)c2)C2(C)CN(C)C2)cc1 [Example 640] | 169
CC(C)c1ccc([C@](O)(c2cncc(CCC(C)(C)N3CCNC3=O)c2)C2(C)CN(C)C2)cc1 [Example 641] | 67
CC(=O)N1CCC[C@]1(C)CCc1cncc([C@@](O)(c2ccc(C(C)C)cc2)C2(C)CN(C)C2)c1 [Example 642] | 277
CC(C)c1ccc([C@](O)(c2cncc(CCC(C)(O)c3n[nH]c4ccccc34)c2)C2(C)CN(C)C2)cc1 (stereo partly drawn) [Example 643] | 16.9
CC(C)c1ccc([C@](O)(c2cncc(CCC(C)(O)c3ccn(C4CC4)n3)c2)C2(C)CN(C)C2)cc1 (stereo partly drawn) [Example 644] | 147
Cc1nccc(C(C)(O)CCc2cncc([C@@](O)(c3ccc(C(C)C)cc3)C3(C)CN(C)C3)c2)n1 (stereo partly drawn) [Example 645] | 110
Cc1cnc(C(C)(O)CCc2cncc([C@@](O)(c3ccc(C(C)C)cc3)C3(C)CN(C)C3)c2)cn1 (stereo partly drawn) [Example 646] | 129

SMILES | IC50 [nM]
Cc1ncc(C(C)(O)CCc2cncc([C@@](O)(c3ccc(C(C)C)cc3)C3(C)CN(C)C3)c2)s1 (stereo partly drawn) [Example 647] | 76.3
Cc1cc(C(C)(O)C#Cc2cncc([C@@](O)(c3ccc(C(C)C)cc3)C3(C)CN(C)C3)c2)on1 (stereo partly drawn) [Example 648] | 46.6
CC(C)c1ccc([C@](O)(c2cncc(C#CC(C)(O)c3nccn3C)c2)C2(C)CN(C)C2)cc1 (stereo partly drawn) [Example 649] | 185
Cc1ccc(C(C)(O)C#Cc2cncc([C@@](O)(c3ccc(C(C)C)cc3)C3(C)CN(C)C3)c2)s1 (stereo partly drawn) [Example 650] | 15.9
CC(C)c1ccc([C@](O)(c2cncc(C#CC(C)(O)c3cccn3C)c2)C2(C)CN(C)C2)cc1 (stereo partly drawn) [Example 651] | 16.1
Cc1cccc(C(C)(O)C#Cc2cncc([C@@](O)(c3ccc(C4(C(F)(F)F)CC4)cc3)C3(C)CN(C)C3)c2)n1 (stereo partly drawn) [Example 654] | 46.2
Cc1cccc(C(C)(O)C#Cc2cncc([C@@](O)(c3ccc(C4(C)CC4)cc3)C3(C)CN(C)C3)c2)n1 (stereo partly drawn) [Example 655] | 55
Cc1cccc(C(C)(O)C#Cc2cncc([C@@](O)(c3ccc(C(F)(F)F)cc3)C3(C)CN(C)C3)c2)n1 (stereo partly drawn) [Example 656] | 208
CCc1ccc([C@](O)(c2cncc(C#CC(C)(O)c3cccc(C)n3)c2)C2(C)CN(C)C2)cc1 (stereo partly drawn) [Example 657] | 86.6
Cc1cccc(C(C)(O)C#Cc2cncc([C@@](O)(c3ccc(C(C)(C)C)cc3)C3(C)CN(C)C3)c2)n1 (stereo partly drawn) [Example 658] | 86.6
CCC1([C@](O)(c2ccc(OC(F)(F)F)cc2)c2cncc(C#CC(C)(O)c3cccc(C)n3)c2)CN(C)C1 (stereo partly drawn) [Example 659] | 344
Cc1cccc(C(C)(O)C#Cc2cncc([C@@](O)(c3ccc(CC(F)(F)F)cc3)C3(C)CN(C)C3)c2)n1 (stereo partly drawn) [Example 660] | 82.4
Cc1cccc(C(C)(O)C#Cc2cncc([C@@](O)(c3ccc(C(C)C)cc3)C3(F)CN(C)C3)c2)n1 (stereo partly drawn) [Example 661] | 54.3
CC(=O)N1CCC(C#Cc2cc([C@@](O)(c3ccc(C(C)C)cc3)C3(C)CN(C)C3)cnn2)CC1 [Example 662] | 331
CC(=O)NC(C)(C)C#Cc1cc([C@@](O)(c2ccc(C(C)C)cc2)C2(C)CN(C)C2)cnn1 [Example 663] | 992
CC(C)c1ccc([C@](O)(c2cnnc(C#CC(C)(C)N3CCCC3=O)c2)C2(C)CN(C)C2)cc1 [Example 664] | 211
Cc1cccc(C(C)(O)C#Cc2cncc([C@@](O)(c3ccc(C(C)C)cc3)C3(C)CN(C(C)C)C3)c2)n1 (stereo partly drawn) [Example 665] | 40.4
Cc1cccc(C(C)(O)C#Cc2cncc([C@@](O)(c3ccc(C(C)C)cc3)C3(C)CN(CCO)C3)c2)n1 (stereo partly drawn) [Example 667] | 52.4
Cc1cccc(C(C)(O)C#Cc2cncc([C@@](O)(c3ccc(C(C)C)cc3)C3(C)CN(CC(F)F)C3)c2)n1 (stereo partly drawn) [Example 668] | 101
CC(=O)N1CCC(COc2cncc([C@@](O)(c3ccc(C(C)C)cc3)C3(C)CN(C)C3)c2)CC1 [Example 669, 1-(4-{5-[(R)-(1,3-Dimethyl-azetidin-3-yl)-hydroxy-(4-isopropyl-phenyl)-methyl]-pyridin-3-yloxymethyl}-piperidin-1-yl)-ethanone] | 62.1
